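Grown in 96-well plates, cells were treated for 48 hours with each compound at five concentrations. Insufficient inhibition: endpoint recorded as highest concentration tested. TGI is the concentration that stops growth completely.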
Columns and labels:
Assay in all cases: inhibition of tumour cell growth, NCI panel, 48 h
[1] = tested on: M14 melanoma
[2] = tested on: OVCAR-4 ovarian
[3] = tested on: K-562 leukemia
[4] = tested on: DLD-1 colon
[5] = tested on: OVCAR-3 ovarian
[6] = tested on: KM12 colon
[7] = tested on: UACC-62 melanoma
[8] = tested on: HCT-15 colon
[9] = tested on: SK-OV-3 ovarian
[10] = tested on: DMS 273 small cell lung
[11] = tested on: U251 CNS
[12] = tested on: NCI-H522 lung
[13] = tested on: SF-295 CNS
[14] = tested on: RXF 393 renal
[15] = tested on: SK-MEL-2 melanoma
[16] = tested on: HOP-62 NSCLC
[17] = tested on: OVCAR-5 ovarian
[18] = tested on: DMS 114 small cell lung
[19] = tested on: IGROV1 ovarian
[20] = tested on: SW-620 colon
[21] = tested on: COLO 205 colon
[22] = tested on: KM20L2 colon
[23] = tested on: OVCAR-8 ovarian
[24] = tested on: SNB-19 CNS
[25] = tested on: SK-MEL-5 melanoma
[26] = tested on: LOX IMVI melanoma
[27] = tested on: CCRF-CEM leukemia
[28] = tested on: A498 renal
[29] = tested on: UO-31 renal
[30] = tested on: ACHN renal
[31] = tested on: SNB-78 CNS
[32] = tested on: A549 NSCLC
[33] = tested on: LXFL 529 NSCLC
[34] = tested on: XF 498 CNS
[35] = tested on: HOP-18 NSCLC
[36] = tested on: SNB-75 CNS
[37] = tested on: M19-MEL melanoma
[38] = tested on: SK-MEL-28 melanoma
[39] = tested on: SF-268 CNS
[40] = tested on: MOLT-4 leukemia
[41] = tested on: EKVX NSCLC
[42] = tested on: 786-0 renal
[43] = tested on: SF-539 CNS
[44] = tested on: NCI-H460 lung
[45] = tested on: HT29 colon
[46] = tested on: HCT-116 colon
[47] = tested on: MALME-3M melanoma
[48] = tested on: UACC-257 melanoma
[49] = tested on: RPMI-8226 leukemia
[50] = tested on: SN12C renal
[51] = tested on: NCI-H23 lung
[52] = tested on: CAKI-1 renal
[53] = tested on: HOP-92 NSCLC
[54] = tested on: SR leukemia
[55] = tested on: HL-60(TB) leukemia
[56] = tested on: TK-10 renal
[57] = tested on: RXF-631 renal
[58] = tested on: NCI-H226 lung
[59] = tested on: HCC-2998 colon

Cc1cc(C)nc(NS(=O)(=O)c2ccc(Nc3c4ccccc4nc4c(C(=O)Nc5ccc(S(N)(=O)=O)cc5)cccc34)cc2)n1
TGI [1]: > 100 µM | TGI [2]: > 100 µM | TGI [3]: > 100 µM | TGI [4]: > 100 µM | TGI [5]: > 100 µM | TGI [6]: > 100 µM | TGI [7]: > 100 µM | TGI [8]: > 100 µM | TGI [9]: 75.5 µM | TGI [10]: > 100 µM | TGI [11]: > 100 µM | TGI [12]: > 100 µM | TGI [13]: > 100 µM | TGI [14]: > 100 µM | TGI [15]: > 100 µM | TGI [16]: > 100 µM | TGI [17]: > 100 µM | TGI [18]: > 100 µM | TGI [19]: > 100 µM | TGI [20]: > 100 µM | TGI [21]: > 100 µM | TGI [22]: > 100 µM | TGI [23]: > 100 µM | TGI [24]: > 100 µM | TGI [25]: > 100 µM | TGI [26]: > 100 µM | TGI [27]: > 100 µM | TGI [28]: > 100 µM | TGI [29]: > 100 µM | TGI [30]: > 100 µM | TGI [31]: > 100 µM | TGI [32]: > 100 µM | TGI [33]: > 100 µM | TGI [34]: > 100 µM | TGI [35]: > 100 µM | TGI [36]: 88.4 µM | TGI [37]: > 100 µM | TGI [38]: > 100 µM | TGI [39]: > 100 µM | TGI [40]: > 100 µM | TGI [41]: 98.2 µM | TGI [42]: > 100 µM | TGI [43]: > 100 µM | TGI [44]: > 100 µM | TGI [45]: > 100 µM | TGI [46]: > 100 µM | TGI [47]: > 100 µM | TGI [48]: > 100 µM | TGI [49]: > 100 µM | TGI [50]: > 100 µM | TGI [51]: > 100 µM | TGI [52]: > 100 µM | TGI [53]: > 100 µM

C=CC1C2=C(C(=O)NCC2)C2OC(O)C3=C(CCNC3=O)C2C1C (stereo unspecified)
TGI [6]: > 100 µM | TGI [7]: > 100 µM | TGI [9]: > 100 µM | TGI [11]: > 100 µM | TGI [12]: > 100 µM | TGI [14]: > 100 µM | TGI [17]: > 100 µM | TGI [18]: > 100 µM | TGI [19]: > 100 µM | TGI [24]: > 100 µM | TGI [54]: > 100 µM | TGI [55]: > 100 µM | TGI [27]: > 100 µM | TGI [29]: > 100 µM | TGI [30]: > 100 µM | TGI [31]: > 100 µM | TGI [32]: > 100 µM | TGI [38]: > 100 µM | TGI [39]: > 100 µM | TGI [40]: > 100 µM | TGI [56]: > 100 µM | TGI [41]: > 100 µM | TGI [46]: > 100 µM | TGI [57]: > 100 µM | TGI [51]: > 100 µM | TGI [53]: > 100 µM

FC(F)(F)P1C2C=CC(CC2)C1(F)F (stereo unspecified)
TGI [58]: > 100 µM | TGI [1]: > 100 µM | TGI [2]: > 100 µM | TGI [3]: > 100 µM | TGI [4]: > 100 µM | TGI [6]: > 100 µM | TGI [7]: > 100 µM | TGI [8]: > 100 µM | TGI [9]: > 100 µM | TGI [10]: > 100 µM | TGI [11]: > 100 µM | TGI [12]: > 100 µM | TGI [13]: > 100 µM | TGI [14]: > 100 µM | TGI [15]: > 100 µM | TGI [16]: > 100 µM | TGI [17]: > 100 µM | TGI [18]: > 100 µM | TGI [19]: > 100 µM | TGI [20]: > 100 µM | TGI [21]: > 100 µM | TGI [22]: > 100 µM | TGI [23]: > 100 µM | TGI [24]: > 100 µM | TGI [25]: > 100 µM | TGI [26]: > 100 µM | TGI [55]: > 100 µM | TGI [27]: > 100 µM | TGI [28]: > 100 µM | TGI [29]: > 100 µM | TGI [30]: > 100 µM | TGI [31]: > 100 µM | TGI [32]: > 100 µM | TGI [33]: > 100 µM | TGI [59]: > 100 µM | TGI [34]: > 100 µM | TGI [35]: > 100 µM | TGI [36]: > 100 µM | TGI [37]: > 100 µM | TGI [38]: > 100 µM | TGI [39]: > 100 µM | TGI [40]: > 100 µM | TGI [56]: > 100 µM | TGI [41]: > 100 µM | TGI [42]: > 100 µM | TGI [43]: > 100 µM | TGI [44]: > 100 µM | TGI [45]: > 100 µM | TGI [46]: > 100 µM | TGI [47]: > 100 µM | TGI [48]: > 100 µM | TGI [49]: > 100 µM | TGI [50]: > 100 µM | TGI [51]: > 100 µM | TGI [52]: > 100 µM

O=C(Cc1ccccc1)NN1C(=O)C(Cl)C1c1cccc(O)c1 (stereo unspecified)
TGI [58]: 43.4 µM | TGI [1]: 31.4 µM | TGI [2]: 40 µM | TGI [3]: 34.7 µM | TGI [4]: 31.1 µM | TGI [5]: 28.1 µM | TGI [8]: 42.7 µM | TGI [9]: 80.5 µM | TGI [10]: 37.9 µM | TGI [11]: 24.4 µM | TGI [12]: 23.2 µM | TGI [13]: 40.4 µM | TGI [14]: 32.3 µM | TGI [15]: 59.5 µM | TGI [16]: 80.6 µM | TGI [17]: 27.5 µM | TGI [18]: 29.4 µM | TGI [19]: 34.8 µM | TGI [20]: 16.7 µM | TGI [21]: 32.9 µM | TGI [22]: 32.2 µM | TGI [23]: 35.1 µM | TGI [24]: > 100 µM | TGI [26]: 27.9 µM | TGI [54]: 15.4 µM | TGI [55]: 32.8 µM | TGI [27]: 8.44 µM | TGI [29]: 29.4 µM | TGI [30]: 31 µM | TGI [31]: 73.6 µM | TGI [32]: 59.8 µM | TGI [33]: 22.8 µM | TGI [59]: 36.8 µM | TGI [34]: 35.4 µM | TGI [35]: 36.5 µM | TGI [36]: 74.6 µM | TGI [37]: 35.8 µM | TGI [38]: 34.6 µM | TGI [39]: 53.7 µM | TGI [40]: 31.6 µM | TGI [56]: 34.1 µM | TGI [41]: 45.7 µM | TGI [42]: 31.5 µM | TGI [44]: 36.4 µM | TGI [45]: 31.1 µM | TGI [46]: 28.9 µM | TGI [47]: 76.3 µM | TGI [48]: 35 µM | TGI [49]: 10.1 µM | TGI [50]: 33.4 µM | TGI [51]: 35.2 µM | TGI [52]: 34.8 µM

From PubChem BioAssay (NCI)
